Assay results from US20110071124A1, “Compounds that Inhibit Production of sAPPB and AB and Uses Thereof” (The Trustees of Columbia University in the City of New York, priority 2008, published 2011).
Read-outs that look alike come from different tables or passages of the source.

Experiments:
[1] = tested on: sAPPβ (BACE1 cleavage of SEAP-APPwt) in SY5Y-BACEGFP-SEAPAPPwt cells; assay: cell-based BACE1 assay (sAPPβ modified ELISA)
Protocol: FIG. 1. An sAPPβ assay utilized to identify inhibitors of BACE1. The assay utilizes SY5Y cells stably overexpressing BACE-GFP and SEAP-APPwt. Cells are incubated with a candidate compound for 6 hours prior to harvesting media. BACE1-mediated cleavage of APP results in the release of sAPPβ into the media. α-secretase, a competing enzyme that is non-amyloidogenic, also cleaves APP to release […]. Using an sAPPβ-specific antibody (sβwt), SEAP-sAPPβ is specifically captured in a modified ELISA assay. Detection is achieved by addition of the fluorescent alkaline phosphatase substrate, 4-methylumbelliferyl phosphate (4-MUP).
(§1) FIG. 13. […] Compounds were tested in SY5Y-BACEGFP-SEAPAPPwt cells using the cell-based BACE1 assay. Select compounds were also investigated for Aβ-lowering effect using a commercial Aβ ELISA kit (BioSource). All compounds were tested at 8 concentrations (30, 10, 3, 1, 0.3, 0.1, 0.03, and 0.01 μM), and data points were analyzed with Origin software and fitted using a logistic model for IC50 determination.
As described in the Examples below, and depicted in FIG. 1, an sAPPβ ELISA assay may comprise cells, for example, SY5Y cells, transfected with a BACE1 reporter construct, such as a GFP-tagged BACE1 (BACE-GFP), and a wild type APP reporter construct, such as a secreted alkaline phosphatase (SEAP)-tagged wild type APP (SEAP-APPwt). BACE1 cleavage of the reporter-tagged APP (e.g. SEAP-APPwt) may result in secretion into the media of SEAP-tagged sAPPβ, which may be collected and specifically captured using an sAPPβ cleavage site-specific antibody (e.g. stβwt). Following washing, a substrate may be used, for example, the fluorescent alkaline phosphatase substrate 4-methylumbelliferyl phosphate (4-MUP), to detect the captured SEAP-sAPPβ.
A cell-based modified ELISA assay for measuring sAPPβ, the secreted ectodomain of β-amyloid precursor protein (APP) following β-secretase (BACE1) cleavage, was used to identify a class of compounds that interfered with the first step of sAPPβ generation. This assay has been described in International Application PCT/US2007/015938 (Published as International Publication No. WO 08/008463), which is herein incorporated in its entirety for all purposes.
The SY5Y-BACEGFP-SEAPAPPwt cell based assay was developed to discover novel small molecule modulators of BACE1 activity. SY5Y cells were stably transfected with GFP-tagged BACE1 (BACE-GFP) and secreted alkaline phosphatase (SEAP)-tagged wildtype APP (SEAP-APPwt). BACE1 cleavage of SEAP-APPwt results in secretion into the media of SEAP-tagged sAPPβ, which is collected and specifically captured using an sAPP0 cleavage site-specific antibody (sβwt). After washing, the fluorescent alkaline phosphatase substrate 4-methylumbelliferyl phosphate (4-MUP) is used to detect the captured SEAP-sAPPβ (FIG. 1).
The 15 LDDN compounds selected based on their 3-point dose-response profile were tested at 12 concentrations (ranging from 0.1 nM to 30 μM) in the cell-based BACE1 assay. The assay was conducted in 96-well format to maximize the Z′ factor. Compounds were characterized in duplicate cell plates, each containing 12 doses of compound in triplicate. Cell viability was measured at 6 and 24 hours using Promega's Cell Titer-Glo kit according to the manufacturer's protocol. The dose-response curves for sAPPβ reduction were plotted using Origin software and fitted using a logistic model for IC50 determination.
(§2) 27 structural analogs of LDN-0057228 were synthesized and tested using the cell-based BACE1 assay in SY5Y-BACEGFP-SEAPAPPwt cells (FIG. 13). 4 analogs, in addition to the parent compound, were also assessed for Aβ40 lowering activity using a commercial Aβ kit (BioSource). Because LDN-0057228 resembles CNS monoamine transporter inhibitors, this analog series was given the designation “CNS.” LDN-0057228 gave an unexpectedly low potency (IC50˜20 μM for both sAPPβ and Aβ40 reduction) compared to the ˜7 μM potency obtained using the same compound in FIG. 8.

[2] = tested on: Aβ40 in SY5Y-BACEGFP-SEAPAPPwt cells; assay: Aβ40 ELISA (BioSource) in SY5Y-BACEGFP-SEAPAPPwt cells; assay type: cell-based; details: for IC50: SAR study, 8 concentrations (30-0.01 μM), SY5Y-BACEGFP-SEAPAPPwt cells
Protocol: FIG. 11. 5 LDDN compounds reduce Aβ40 in SYSY-BACEGFP-SEAPAPPwt cells. sAPPβ and 24-hour cell viability was performed as described in Chapter 4.1. Aβ40 ELISA was performed using the Aβ40 ELISA kit (BioSource) according to the manufacturer's protocol. Cell culture media was collected after 6 hours of treatment with 4 concentrations (30, 10, 3, 0.3 μM) of compound and diluted 3:10 prior to loading onto the Aβ ELISA plate. The data points for sAPPβ and Aβ were roughly superimposed. Data points represent mean±s.d. of 3 determinations.
as §1
In other non-limiting embodiments, the effective amount of at least one compound of Formulas I-VII, and/or a compound depicted in FIG. 19, may be correlated with the compound's ability to reduce the level of Aβ40 in an in vitro assay that measures the level of Aβ40 produced in a cell line, for example, an SY5Y-BACEGFP-SEAPAPPwt cell line. In one non-limiting example, the level of Aβ40 expressed by the cell line may be measured through the use of an Aβ40 Elisa kit (Bio Source). In one embodiment, the assay comprises incubating the Aβ40 expressing cells with a compound of Formulas I-VII, and/or a compound depicted in FIG. 19, followed by assaying the concentration of Aβ40 in the cell media. In such an assay, a greater reduction of Aβ40 concentration in the cell media following incubation with a compound compared to a control cell line not contacted with the compound is correlative with the compound's therapeutic efficacy.
The 15 LDDN compounds were tested in SY5Y-BACEGFP-SEAPAPPwt cells for their ability to reduce Aβ40 using a commercial Aβ40 ELISA kit (BioSource). SY5Y-BACEGFP-SEAPAPPwt cells were grown to 100% confluence and incubated with 4 concentrations of each compound (30, 10, 3, 0.3 μM). Cell culture media was collected after 6 hours of compound incubation and diluted 3:10 in sample diluent supplied in the Aβ40 ELISA kit. Aβ ELISA was performed according to the manufacturer's protocol. […] LDN-0057228 and LDN-0069630 are small molecules with ample chemical space for modification, and are thus considered good candidates for medicinal chemistry.
as §2

[3] = SAR study, 8 concentrations (30-0.01 μM), SY5Y-BACEGFP-SEAPAPPwt cells, read-out: IC50(sAPPβ)

Row | SMILES | IC50 ([1]; 12 concentrations 0.1 nM to 30 μM, 96-well format (FIG. 8), read-out: cell-based IC50 (sAPPβ), 12-point dose-response) | IC50 [1, 3] | dose-dependent decrease in Aβ40 ([2]; 4 concentrations (30, 10, 3, 0.3 μM), 6 hours) | IC50 [2]
1 | Fc1ccc(C(OCCN2CCC[C@H]2CNCCc2ccccc2)c2ccc(F)cc2)cc1 [LDN-0057228] | ~7 µM | ~20 µM | caused a dose-dependent decrease in Aβ40 | ~20 µM
2 | O=C(CCc1ccccc1)NC[C@@H]1CCCN1CCOC(c1ccc(F)cc1)c1ccc(F)cc1 [CNS-2] |  | 8.9 µM |  | 5 µM
